Experimental data taken from US9029080B2, “Screening assay for insecticides” (priority 2008, dated 2015).

Target: T1, octopamine receptor (OctR, CG6919 dmOa2) (Drosophila melanogaster, UniProt Q9VCZ3)
T1 construct: expressed in transfected cells; host or cells: CHO stably expressing G-alpha-16
Assay: OctR clone 55 FLIPR Fluo-4 calcium assay
Format: cell-based
Conditions: clone 55, same as published cAMP data
Procedure: FIG. 62. Cells were plated at 10K/well in 384 well plates and allowed to incubate overnight at […]. The cells were assayed 18-24 hours after seeding. Media was removed and cells were dye loaded for 60 minutes with 2 μM Fluo-4. After 1 hour, dye was removed and 20 μl of buffer added to the plate and placed into FLIPR. The 1st addition was antagonist dose response curves and the 2nd addition was agonist dose response curves. Antagonists were challenged with 100 nM Octopamine. In addition, these compounds were tested in the parental cell line CHO-Galpha16.
Cells were plated at 10,000 cells/well in 50 μl into 384-well black TC plates and allowed to incubate overnight at 37° C./5% CO2. The cells were assayed 18-24 hours after seeding. Culture medium was removed by flicking and cells were dye loaded for 60 minutes with 20 μl of 2 μM Fluo-4 in assay buffer plus probenecid at 25° C. After one hour dye was removed by flicking and 20 μL of assay buffer was added, wait 5 min prior to placing into the FLIPR and run using a two-addition protocol. The first addition (20 ul, 2×) was 0.5% DMSO final in assay buffer. The second addition (20 ul, 3×) was either assay buffer or 100 nM octopamine final.

`c1ccc(CC2=NCCN2)cc1` [tolazoline] was tested, and the “rank order of potency (agonists)” value was “naphazoline>octopamine>amitraz>clonidine>tolazoline”.

Target: T2, ShaI/KChIP (Drosophila melanogaster, UniProt P17971)
T2 construct: expressed in transfected cells; subclone 18-13-20
T2 sequence (P17971 with tags, fused parts or gaps isoform P17971-1): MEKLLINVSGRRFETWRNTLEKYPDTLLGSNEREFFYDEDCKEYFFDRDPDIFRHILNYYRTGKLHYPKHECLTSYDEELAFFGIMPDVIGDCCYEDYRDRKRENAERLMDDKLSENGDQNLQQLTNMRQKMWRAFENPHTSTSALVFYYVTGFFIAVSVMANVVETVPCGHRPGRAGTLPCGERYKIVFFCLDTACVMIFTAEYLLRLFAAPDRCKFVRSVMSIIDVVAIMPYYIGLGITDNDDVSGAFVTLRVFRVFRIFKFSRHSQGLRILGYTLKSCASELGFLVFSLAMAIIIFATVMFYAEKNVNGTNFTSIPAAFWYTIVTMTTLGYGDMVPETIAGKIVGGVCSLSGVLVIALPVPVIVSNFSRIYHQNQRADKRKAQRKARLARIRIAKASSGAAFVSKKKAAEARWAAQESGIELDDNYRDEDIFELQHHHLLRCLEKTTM
Assay: ShaI/KChIP FLIPR membrane potential assay, KCl depolarization
Format: cell-based
Conditions: not given
Procedure: This assay uses two fluid additions to permit the detection of activators and antagonists in a single experiment (FIG. 17). In screening, test compounds are added in the first addition and allowed to incubate for three minutes. An activating dose of KCl is then introduced in the second addition and the fluorescence read for an additional three minutes. Controls are run for both additions.
Cells were dispensed in a 50 μl volume containing 7,500 cells into 384-well TC clear/black assay plates (Greiner 781091) using a Multidrop 384 dispenser, incubated at ambient temperature for one hour (to reduce edge effects), and incubated overnight at 37° C./5% CO2. The cells were assayed 18-24 hours after seeding, at which point they were just approaching confluency in the wells. Culture medium was removed by flicking and tapping it out of the plate, and cells were loaded with 20 ul/well of 1× blue membrane potential dye in assay buffer for 30 minutes at 25° C. After 30 minutes the assay plate was placed into the FLIPR and run using a two-addition protocol. The first addition (5×, 5 ul) contained 2.5% DMSO in assay buffer. The pipetting height was set at 15 and the speed 20. The plate was read for three minutes after this addition. The second addition (2×, 25 ul) was either assay buffer or 120 mM isometrically-substituted KCl (i.e., KCl substituted for NaCl on a 1:1 molar basis). The height was 20 and the speed 25. Aspirate speeds were set at the lowest values and no hold or expel volumes applied. The plate was read for an additional three minutes after the second addition. The exported statistics were typically configured as stat1=average of 190-200 (the interval just before the first addition) and stat2=maximum of 260-maximum allowed. Subtract bias was set at 1 and negative control correction was OFF. Z′ statistics (an index of “screenability”, Z′>0.5=single-pass screen) were calculated using the following formula: Z′=1−((3σmax+3σmin)/(Iμmax−μminI)).
FIG. 32: BIOMOL compounds—primary screening data. ScreenWorks screenshots showing primary FLIPR data for BIOMOL compound screening. ShaI/KChIP 20 cells were plated at 7500 cells/well in 384-well assay plates and screened the following day. Culture medium was removed by flicking the plates and the cells were loaded with 20 ul 1× membrane potential dye per well for 0.5 hours at 25° C. A two-addition protocol was used. The first addition was 5 ul 5× control or compound in 2.5% DMSO in assay buffer (0.5% [final]) read for 180 sec, and the second addition was 25 ul 2× control or 120 mM isometrically-substituted KCl in assay buffer (0-60 mM [final]) read for an additional 180 sec. Statistics were exported using the average of reads 180-200 and the maximum of reads 260-maximum allowed. Subtract bias was set at 1 and negative control correction was OFF. Control columns ½ and 23/24 are described starting on pg. 53 of this document. Inset: Screenshot of group averages for the control and compound wells highlighted in the primary data screen.
The 3222 unique members of the BioFocus SoftFocus Ion Channel Libraries #1-4 (#SF101-04) were screened in 384-well four-point mode against ShaI/KChIP at 10 uM in a combined activator and antagonist screen. The same FLIPR protocol was used as for the BIOMOL screening and was carried out over four non-consecutive days. The following compound preparation protocol was used to prepare screening plates: Briefly, ShaI-KChIP cells were seeded in 384-well plates at 7500 cells/well in 50 ul and incubated overnight at 37° C./5% CO2. The next day, culture medium was removed, 20 ul of 1×FMP dye was added, and the cell plate was incubated at 27° C. for 30 minutes. After incubation, the cell plate was placed into the Tetra and a two-addition protocol was used. The 1st addition was 5 μl of 5× compound (50 μM) with a three minute read. […] The 2nd addition was 25 ul of 2× activation buffer (120 mM isometric KCl substitution for NaCl) and read for an additional two minutes. […]

Point of comparison: `Cc1c(C(=O)NCc2ccc(F)cc2)sc(=O)n1Cc1ccc(Cl)c(Cl)c1`, inhibition at 10 µM 38%. Against it:
- O=C1Nc2cc(F)ccc2C1(Cc1ccc(C(F)(F)F)nc1)c1cccc(F)c1 (centres unmarked) — higher, 42.7%
- Cc1ccc(C2(Cc3ccncc3)C(=O)Nc3ccc(OC(F)(F)F)cc32)cc1 (centres unmarked) — lower, 29.1%
- Cc1ccc(C2(Cc3ccncc3)C(=O)Nc3cc(F)ccc32)cc1 (centres unmarked) — higher, 48.5%
- Cc1ccc(C2(Cc3cccc(C(N)=O)c3)C(=O)Nc3cc(F)ccc32)cc1 (centres unmarked) — higher, 57.5%
- COC(=O)c1ccc(CC2(c3cccc(F)c3)C(=O)Nc3cccc(Cl)c32)o1 (centres unmarked) — higher, 41.5%
- COc1ccc(C2(Cc3ccc(C(F)(F)F)o3)C(=O)Nc3ccc(F)cc32)c(OC)c1 (centres unmarked) — higher, 60.3%
- CC1(Cc2cccc(F)c2)C(=O)Nc2ccc(OC(F)(F)F)cc21 (centres unmarked) — lower, 33.5%
- NC(=O)c1cccc(CC2(c3ccccc3)C(=O)Nc3c(Cl)cccc32)c1 (centres unmarked) — lower, 33.3%
- O=C1Nc2ccc(OC(F)(F)F)cc2C1(Cc1ccccn1)c1ccccc1 (centres unmarked) — higher, 39.1%
- CC1ON=C(c2cccc(Cl)c2)N(Cc2ccc3c(c2)OCO3)C1=O (centres unmarked) — lower, 31.5%
- Cc1nc(CC2(c3ccccc3)C(=O)Nc3cc(F)ccc32)cs1 (centres unmarked) — higher, 42.5%
- CC1(Cc2ccccc2C#N)C(=O)Nc2cc(OC(F)(F)F)ccc21 (centres unmarked) — lower, 31.2%
- CC1(Cc2ccccc2C#N)C(=O)Nc2ccccc21 (centres unmarked) — higher, 39.7%
- Cc1cc(CC2(c3cccc(F)c3)C(=O)Nc3cc(F)ccc32)no1 (centres unmarked) — higher, 54.9%
- NC(=O)c1cccc(CC2(c3cccc(F)c3)C(=O)Nc3cc(F)ccc32)c1 (centres unmarked) — higher, 54.1%
- CC1(Cc2ccc(F)c(Cl)c2)C(=O)Nc2ccc(F)cc21 (centres unmarked) — higher, 52.6%
- Cc1ccsc1C1(C)C(=O)Nc2ccccc21 (centres unmarked) — higher, 56.8%
- CC1ON=C(Cc2ccccc2)N(CCc2c[nH]c3ccccc23)C1=O (centres unmarked) — lower, 29.6%
- Cc1nc(CC2(c3sccc3C)C(=O)Nc3ccc(OC(F)(F)F)cc32)cs1 (centres unmarked) — lower, 37.8%
- Cc1ccc(C2(Cc3c(C)noc3C)C(=O)Nc3cc(F)ccc32)cc1 (centres unmarked) — lower, 35.2%
- CC1(Cc2ccccc2C#N)C(=O)Nc2cc(-c3ccccc3Cl)ccc21 (centres unmarked) — higher, 63.3%
- Cc1noc(C)c1CC1(c2ccccc2)C(=O)Nc2ccc(OC(F)(F)F)cc21 (centres unmarked) — higher, 50.4%
- CC1(c2ccccc2)C(=O)Nc2ccccc21 (centres unmarked) — higher, 42.6%
- CC1ON=C(c2cccc(Cl)c2)N(Cc2cccc(C#N)c2)C1=O (centres unmarked) — higher, 38.7%
- O=C1Nc2cc(Cl)cc(Cl)c2C1(Cc1ccncc1)c1ccccc1 (centres unmarked) — lower, 36.4%
- Cc1ccsc1C1(Cc2cccc(C#N)c2)C(=O)Nc2cc(F)ccc21 (centres unmarked) — higher, 58%
- COc1ccc(C(C)=O)cc1CC1(c2ccc3c(c2)OCO3)C(=O)Nc2ccccc21 (centres unmarked) — lower, 35.2%
- O=C(NCc1cccc(C(F)(F)F)c1)c1cn(CCOc2ccc(F)cc2)c(=O)s1 — lower, 30.2%
- Cc1c(C(=O)NCc2ccc(C(F)(F)F)cc2)sc(=O)n1CCc1c[nH]c2ccccc12 — lower, 33.3%
- CC1ON=C(c2ccc(N(C)C)cc2)N(Cc2cccc(F)c2)C1=O (centres unmarked) — higher, 41.3%
- Cc1ccccc1C1(Cc2cccc(C#N)c2)C(=O)Nc2ccc(F)cc21 (centres unmarked) — higher, 55.5%
- Cc1ccc(C2(Cc3cc(C)on3)C(=O)Nc3ccc(OC(F)(F)F)cc32)cc1 (centres unmarked) — higher, 40.1%
- O=C1Nc2ccc(F)cc2C1(Cc1ccccn1)c1ccc(Cl)cc1 (centres unmarked) — higher, 56.8%
- Cc1c(C(=O)NCc2ccc([N+](=O)[O-])cc2)sc(=O)n1Cc1ccc(OC(F)(F)F)cc1 — lower, 30.2%
- COc1ccc(Cl)cc1CC1(C)C(=O)Nc2ccc(F)cc21 (centres unmarked) — lower, 32%
- Cc1ccc(C2(Cc3csc(C)n3)C(=O)Nc3cc(F)ccc32)cc1 (centres unmarked) — lower, 29.3%
- CC1(Cc2cc(Cl)ccc2C(F)(F)F)C(=O)Nc2ccccc21 (centres unmarked) — lower, 32.5%
- Cc1ccc(C2(Cc3csc(C)n3)C(=O)Nc3cccc(Cl)c32)cc1 (centres unmarked) — higher, 46%
- Cc1nc(CC2(c3cccc(F)c3)C(=O)Nc3cc(F)ccc32)cs1 (centres unmarked) — lower, 37.5%
- Cc1noc(C)c1CC1(c2ccccc2)C(=O)Nc2c(Cl)cccc21 (centres unmarked) — lower, 33%
- N#Cc1cccc(CC2(c3ccccc3)C(=O)Nc3ccc(OC(F)(F)F)cc32)c1 (centres unmarked) — lower, 32.1%
- CC1ON=C(c2ccccc2F)N(Cc2cccc(F)c2)C1=O (centres unmarked) — lower, 30.2%
- CCOc1ccc(C2=NOC(C)C(=O)N2Cc2cccc(F)c2)cc1 (centres unmarked) — higher, 52.7%
- COc1ccc(Cl)cc1C1=NOCC(=O)N1CCOc1ccc(F)cc1 — higher, 38.7%
- COc1ccc2c(c1)C(C)(Cc1ccc(Cl)s1)C(=O)N2 (centres unmarked) — higher, 38.3%
- Cc1nc(CC2(c3cccc(F)c3)C(=O)Nc3ccc(OC(F)(F)F)cc32)cs1 (centres unmarked) — lower, 34%
- Cc1nc(CC2(c3ccccc3)C(=O)Nc3ccc(OC(F)(F)F)cc32)cs1 (centres unmarked) — lower, 31.4%
- CCC1(c2sccc2C)C(=O)Nc2ccccc21 (centres unmarked) — higher, 52%
- CC1=NOC(Cc2ccccc2)C(=O)N1CC(=O)c1ccccc1F (centres unmarked) — higher, 41.6%
- Cc1cccnc1C1=NOC(Cc2ccccc2)C(=O)N1CCOc1ccc(F)cc1 (centres unmarked) — lower, 36.2%
- O=C(NCc1cccc(C(F)(F)F)c1)c1cn(CCc2c[nH]c3ccccc23)c(=O)s1 — lower, 35%
- Cc1cccnc1C1=NOC(Cc2ccccc2)C(=O)N1CCc1ccccc1 (centres unmarked) — lower, 33.3%

Molecule `NC(N)=NC(=O)c1nc(Cl)c(N)nc1N` [Amiloride, 3,5-diamino-6-chloro-N-(diaminomethylene)pyrazine-2-carboxamide, reference compound] has an inhibition at 25 µM of 80 to 100%.

Same assay, conditions: ShaI/KChIP 20 cells, three consecutive days, duplicate plates; read-out: IC50 range

With `NC(N)=NC(=O)c1nc(Cl)c(N)nc1N` [Amiloride, 3,5-diamino-6-chloro-N-(diaminomethylene)pyrazine-2-carboxamide, reference compound] the IC50 was 20 to 29 µM.

Same assay, conditions: ShaI/KChIP 20 cells, three consecutive days; standard deviation 3 uM; read-out: IC50 mean

`NC(N)=NC(=O)c1nc(Cl)c(N)nc1N` [Amiloride, 3,5-diamino-6-chloro-N-(diaminomethylene)pyrazine-2-carboxamide, reference compound] gave an IC50 of 24 µM.

Same assay, conditions: read-out: inhibition of ShaI/KChIP response, arbitrary cutoff

`O=C(O)c1ccccc1Nc1cccc(C(F)(F)F)c1` [flufenamic acid, reference compound] and `NC(N)=NC(=O)c1nc(Cl)c(N)nc1N` [Amiloride, 3,5-diamino-6-chloro-N-(diaminomethylene)pyrazine-2-carboxamide, reference compound] cannot be ordered by inhibition at 25 µM: at least 55% for the first, at least 55% for the second.
